{
  "source": "patent US4889860A",
  "about": "(Nova Pharmaceutical Corporation, priority 1987, dated 1989)",
  "key": {"[1]": {"test_system": "bombesin-induced scratching", "test": "bombesin-induced scratching test", "assay_type": "in vivo", "conditions": "sc; subcutaneous; read-out: mean A50, bombesin-induced scratching", "from_the_text": "(Cowan A. Trendsin Pharmacology Science, 7:69-72, 1986) With this test the intracerebroventricular administration of bombesin produces a characteristic scratching response."}, "mu-type opioid receptor": {"target": "T1, mu-type opioid receptor (Rattus norvegicus, UniProt P33535)", "T1 construct": "using rat forebrain membranes; from tissue; host or cells: rat forebrain membranes", "T1 sequence (P33535 whole entry)": "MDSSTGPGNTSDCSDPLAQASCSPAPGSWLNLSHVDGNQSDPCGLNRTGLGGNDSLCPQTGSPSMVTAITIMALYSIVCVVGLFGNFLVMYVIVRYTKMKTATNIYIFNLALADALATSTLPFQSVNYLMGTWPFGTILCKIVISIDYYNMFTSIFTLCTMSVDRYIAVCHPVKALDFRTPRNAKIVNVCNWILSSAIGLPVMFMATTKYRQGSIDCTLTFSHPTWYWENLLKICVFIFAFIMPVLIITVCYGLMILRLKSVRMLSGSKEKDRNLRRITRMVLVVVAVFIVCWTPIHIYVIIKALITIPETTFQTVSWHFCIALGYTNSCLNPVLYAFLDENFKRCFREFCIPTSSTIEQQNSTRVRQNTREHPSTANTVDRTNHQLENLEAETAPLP", "test": "inhibition of specific [^3 H] DAGO binding to rat forebrain membranes", "method": "(§1) The interaction of some of the novel compounds with mu and delta-type opioid receptors present in brain membranes was examined in vitro. […] DAGO (mu-type receptor) or [^3 H] DADLE (delta-type receptor) was determined using rat forebrain membranes. Computer assisted analysis (EBDA) was used to determine apparent Ki values for the various compounds.\n(§2) Values represent the MEAN±S.E.M. of the Ki(nM) for each compound to inhibit specific binding of the indicated ligand to rat brain membranes. The values are from two-five separate experiments and were calculated according to the method of Cheng and Prusoff [Biochem. Pharmacol. 1973, 22, 3099-3108] together with the EBDA Program. Numbers in parentheses are the mean Hill coefficients for each compound to inhibit ligand binding.\nas §2, with “two.div.seven” for “two-five”, “Prusoff” for “Prusoff [Biochem. Pharmacol. 1973, 22, 3099-3108]”, “program.” for “Program.”, “binding. N.D.=not determined” for “binding.”\n(§3) The interaction of some of the novel compounds with mu, delta and kappa - type opioid receptors present in brain membranes was examined in vitro. […] DAGO (mu-type receptor), or [^3 H] DADLE (Delta-type receptor) using rat forebrain membranes and [^3 H] EKC (kappa-type receptor) using guiniea pig cerebellum membrane was determined. Computer assisted analysis (EBDA) was used to determine apparent Ki values for the various compounds.\n(§4) The values represent the MEAN±S.E.M. of the Ki(nM) for each compound to inhibit specific binding of the indicated ligand. Each value represents the mean of three individual experiments performed on separate occasions."}, "[2]": {"target": "delta-type opioid receptor (Rattus norvegicus, UniProt P33533)", "sequence (P33533 whole entry)": "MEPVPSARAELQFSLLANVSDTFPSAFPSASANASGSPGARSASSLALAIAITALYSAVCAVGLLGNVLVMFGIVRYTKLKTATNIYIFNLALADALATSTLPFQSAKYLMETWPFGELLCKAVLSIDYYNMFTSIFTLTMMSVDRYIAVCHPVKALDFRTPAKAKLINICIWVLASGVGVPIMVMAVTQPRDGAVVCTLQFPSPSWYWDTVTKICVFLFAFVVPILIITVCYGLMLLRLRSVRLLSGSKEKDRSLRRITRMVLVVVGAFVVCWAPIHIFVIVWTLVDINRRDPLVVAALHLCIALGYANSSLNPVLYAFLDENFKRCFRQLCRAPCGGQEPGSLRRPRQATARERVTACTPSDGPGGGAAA", "test": "inhibition of specific [^3 H] DADLE binding to rat forebrain membranes", "method": "as §1, §2\nas §2, with “two.div.seven” for “two-five”, “Prusoff” for “Prusoff [Biochem. Pharmacol. 1973, 22, 3099-3108]”, “program.” for “Program.”, “binding. N.D.=not determined” for “binding.”\nas §3, §4"}, "tail flick response": {"test_system": "tail flick response", "test": "radiant heat tail flick analgesia in rats", "assay_type": "in vivo, rat", "conditions": "for ED50: Rattus norvegicus; for dose producing approximately equal analgesia: tail flick, through 3.5 hr", "method": "The analgesic properties of the compounds prepared in accordance with Examples III and IV were evaluated in rats using the radiant heat and tail flick paradigm. […] Flick latencies in FIGS. 11-13 were determined at 30 minute intervals through 3.5 h and the data was expressed as a percentage of the maximum possible effect (% MPE). A 15 sec. cut-off latency was used to minimize tissue damage. The values shown are the mean values for 6 rats.\n(§5) A 15 sec. cut-off latency was used to prevent tissue damage.\nThe analgesic properties of compounds XXII and XXIII were evaluated in rats using the writhing assay and tail flick paradigm. […] The writhing assay which uses a chemical stimulus to produce pain, is believed to be more sensitive to kappa agonist activity than other measures of analgesia which uses a heat stimulus (Dykstra, L.A. Behavioral Pharmacology: The Current Status, N.Y.: Allan R. Liss. Inc. 1985)."}, "[3]": {"test": "deaths of rats during tail flick experiment at high doses", "conditions": "S.C.", "from_the_text": "as §5"}, "[4]": {"conditions": "Simone et al.; cited from earlier work"}, "[5]": {"target": "T2, kappa-type opioid receptor (Cavia porcellus, UniProt P41144)", "T2 construct": "using guiniea pig cerebellum membrane; from tissue; host or cells: guinea pig cerebellum membranes", "T2 sequence (P41144 whole entry)": "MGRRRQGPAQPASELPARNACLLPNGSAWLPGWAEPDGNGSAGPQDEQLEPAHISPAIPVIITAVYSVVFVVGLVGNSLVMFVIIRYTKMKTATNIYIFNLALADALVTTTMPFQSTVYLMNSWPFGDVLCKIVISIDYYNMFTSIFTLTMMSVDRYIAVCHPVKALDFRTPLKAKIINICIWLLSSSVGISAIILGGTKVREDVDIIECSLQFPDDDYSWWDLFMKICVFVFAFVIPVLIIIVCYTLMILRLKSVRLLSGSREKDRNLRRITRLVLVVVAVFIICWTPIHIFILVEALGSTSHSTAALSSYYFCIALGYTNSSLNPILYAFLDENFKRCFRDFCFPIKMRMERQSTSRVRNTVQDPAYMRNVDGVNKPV", "test": "inhibition of specific [^3 H] EKC binding to guinea pig cerebellum membrane", "method": "as §3, §4"}, "writhing response": {"test_system": "writhing response", "test": "animal or person", "assay_type": "in vivo, mouse"}, "[6]": {"conditions": "1 and 2 mg/kg; cited from earlier work"}, "[7]": {"test": "conditioned taste aversion in rats", "assay_type": "in vivo, rat", "conditions": "I.P., day 10", "method": "The ability of a compound to inhibit feeding may not be related to its anorectic properties, but rather to the ability of that compound to produce a conditioned taste aversion. This possibility was tested in the following experiment. Animals were adapted to water deprivation by restricting their access to water to a single 30 min presentation occurring at the same time every day. Baseline water intakes were determined for 7 days until intakes had stabilized, and animals were assigned to treatment groups based on their intakes on the final baseline day. On the following day (day 8), all rats received a bottle of condensed milk (diluted 2:1 water:milk) in place of the water, and intakes were recorded for 30 min. Fifteen minutes after the milk was removed, rats were administered an I.P. injection of vehicles, LiCl (299.6 μmol/kg) or the compound of Example XII (1.15, 2.31, 11.55 and 23.09 μmol/kg). The compound of Example XII was dissolved in 0.3% acetic acid in a volume of 4 ml/kg. LiCl was dissolved in saline, and serves as a positive control, since it is a compound that reliably produces a strong conditioned taste aversion. This procedure was repeated on day 9. On day 10, all rats were given a two-bottle choice of water or the milk:water solution, and intakes were recorded for 30 min. Data for each experiment were analyzed by one-way ANOVA, and post-hoc comparisons were performed using Dunnett's test.\nThe effects of the compound of Example XII in producing a conditioned taste aversion are illustrated in FIGS. 28 and 29. In FIGS. 28 and 29 the data represent the mean ±SEM for each group. **=p<0.01 (Dunnett's test). Abbreviations: SAL, saline; AA, 0.3% acetic acid in distilled water; LiCl, lithium chloride. Doses of the compound of Example XII for each group are expressed in μmole/kg. The number of animals per group: SAL, 4: AA, LiCl and each dose of Example XII, 5. FIG. 28: Total milk intake in ml on day 10. FIG. 29: Preference ratio on day 10."}, "[8]": {"conditions": "Ki, inhibition of specific [^3 H] DAGO binding, Tables 1 and 2, rat brain membranes, MEAN±S.E.M."}, "[9]": {"conditions": "read-out: Ki, inhibition of specific [^3 H] DADLE binding, Tables 1 and 2, rat brain membranes, MEAN±S.E.M."}, "[10]": {"conditions": "sc, 0.5 h, S.C., 30 min, read-out: ED50, tail flick analgesia"}},
  "note": "Where two headings read alike, the source gives them in different places.",
  "data": [
    {"smiles": "Oc1ccc2c3c1O[C@H]1C(=NOCCCc4ccccc4)CC[C@@]4(O)[C@@H](C2)N(CC2CC2)CC[C@]314", "note": "[6[3-phenylpropyl] oximino naltrexone]", "values": [
      {"measurement": "ED50", "setting": "[1]", "result": 0.08, "unit": "mg/kg"}
    ]},
    {"smiles": "CN1CC[C@]23c4c5ccc(O)c4O[C@H]2C(=NOCc2ccccc2)CC[C@@]3(O)[C@H]1C5", "note": "[Example III, 6-Benzyloximino-17-methyl-4,5 α-epoxy-3, 14-dihydroxymorphinan]", "values": [
      {"measurement": "Ki", "setting": "mu-type opioid receptor; [8]", "result": "1.58 ± 0.07", "unit": "nM"},
      {"measurement": "Ki", "setting": "[2]; [9]", "result": "2.8 ± 1.6", "unit": "nM"},
      {"measurement": "ED50", "setting": "tail flick response; [10]", "result": 0.64, "unit": "µmol/kg"},
      {"measurement": "dose producing approximately equal analgesia", "setting": "tail flick response; S.C.", "result": "~2.21", "unit": "µmol/kg"},
      {"measurement": "number of deaths out of six rats", "setting": "[3]; 8.85 μmole/kg", "result": 1},
      {"measurement": "number of deaths out of six rats", "setting": "[3]; 17.7 μmole/kg", "result": 3},
      {"measurement": "number of deaths out of six rats", "setting": "[3]; 26.6 μmole/kg", "result": 3}
    ]},
    {"smiles": "C=CCN1CC[C@]23c4c5ccc(O)c4O[C@H]2/C(=N/N=C2\\CC[C@@]4(O)[C@H]6Cc7ccc(O)c8c7[C@@]4(CCN6CC=C)[C@H]2O8)CC[C@@]3(O)[C@H]1C5", "note": "[naloxonazine]", "values": [
      {"measurement": "inhibition of overnight feeding", "setting": "[4]", "result": "inhibition of overnight feeding"}
    ]},
    {"smiles": "Oc1ccc2c3c1O[C@H]1C(=NOCCc4ccccc4)CC[C@@]4(O)[C@@H](C2)N(CC2CC2)CC[C@]314", "note": "[Example XXII, 6-[2-phenethyl]oximino-17-cyclopropylmethyl-4,5 α-epoxy-3,14-dihydroxymorphinan]", "values": [
      {"measurement": "Ki", "setting": "mu-type opioid receptor; (Ki) nM, μ receptor (Rat Forebrain), Table 6, [^3 H] DAGO, mean of three experiments", "result": 0.88, "unit": "nM"},
      {"measurement": "Ki", "setting": "[2]; read-out: (Ki) nM, δ receptor (Rat Forebrain), Table 6, [^3 H] DADLE, mean of three experiments", "result": 0.6, "unit": "nM"},
      {"measurement": "Ki", "setting": "[5]", "result": 0.28, "unit": "nM"},
      {"measurement": "fold more potent to inhibit specific [3H]EKC", "setting": "[5]; than other compounds or naltrexone", "result": 3, "unit": "fold"},
      {"measurement": "ED50", "setting": "tail flick response; Table 7, read-out: ED50, Antagonism of the Tail-Flick Response in the Rat", "result": 4.02, "unit": "mg/kg"},
      {"measurement": "antagonism of tail-flick response to heat", "setting": "tail flick response; rat", "result": "effectively antagonized the tail-flick response to a heat stimulus in the rat"},
      {"measurement": "ED50", "setting": "writhing response; Mus musculus, Table 7, read-out: ED50, Acetic Acid Induced Writhing in the Mouse", "result": 0.01, "unit": "mg/kg"},
      {"measurement": "potency versus morphine to antagonize writhing response", "setting": "writhing response; mouse, in vivo, ip", "result": "more potent than morphine to antagonize the writhing response"},
      {"measurement": "kappa selectivity and agonist activity", "setting": "writhing response; writhing and tail flick", "result": "selective to kappa receptors and possess kappa agonist activity"}
    ]},
    {"smiles": "COC(=O)CON=C1CC[C@@]2(O)[C@H]3Cc4ccc(OC)c5c4[C@@]2(CCN3CC2CC2)[C@H]1O5", "note": "[N-cyclopropylmethyl-nor-14-hydroxydihydrocodeinone-6-carboxymethyl methyl ester]", "values": [
      {"measurement": "suppression of symptoms in morphine dependent monkeys", "setting": "[6]", "result": "partial suppression of symptoms was obtained"}
    ]},
    {"smiles": "[Cl-].[Li+]", "note": "[LiCl, lithium chloride, reference compound]", "values": [
      {"measurement": "conditioned taste aversion (milk intake, preference ratio)", "setting": "[7]", "result": "significant decreases in milk intake and in the preference ratio were evident only for LiCl"}
    ]},
    {"smiles": "CN1CC[C@]23c4c5ccc(O)c4O[C@H]2C(=NOc2ccccc2)CC[C@@]3(O)[C@H]1C5", "note": "[Example IV, 6-Phenyloximino-17-methyl-4,5 α-epoxy-3, 14-dihydroxymorphinan]", "values": [
      {"measurement": "Ki", "setting": "mu-type opioid receptor; [8]", "result": "0.84 ± 0.09", "unit": "nM"},
      {"measurement": "Ki", "setting": "[2]; [9]", "result": "0.91 ± 0.1", "unit": "nM"},
      {"measurement": "ED50", "setting": "tail flick response; [10]", "result": 0.18, "unit": "µmol/kg"},
      {"measurement": "dose producing approximately equal analgesia", "setting": "tail flick response; S.C.", "result": "~1.12", "unit": "µmol/kg"},
      {"measurement": "number of deaths out of six rats", "setting": "[3]; 4.48 μmole/kg", "result": 1},
      {"measurement": "number of deaths out of six rats", "setting": "[3]; 8.95 μmole/kg", "result": 1},
      {"measurement": "number of deaths out of six rats", "setting": "[3]; 13.4 μmole/kg", "result": 2}
    ]}
  ]
}
